The results in this text go back to ChEMBL document CHEMBL1142480, “Use of the X-ray structure of the beta2-adrenergic receptor for drug discovery. Part 2: Identification of active compounds” (Bioorg Med Chem Lett, 2008).

What is called Ki is a measure of affinity in units of concentration, obtained from inhibition or displacement. Read a high Ki as weaker binding.

This experiment addresses Beta-2 adrenergic receptor (Homo sapiens, UniProt P07550).

Chain of Beta-2 adrenergic receptor (P07550 whole entry): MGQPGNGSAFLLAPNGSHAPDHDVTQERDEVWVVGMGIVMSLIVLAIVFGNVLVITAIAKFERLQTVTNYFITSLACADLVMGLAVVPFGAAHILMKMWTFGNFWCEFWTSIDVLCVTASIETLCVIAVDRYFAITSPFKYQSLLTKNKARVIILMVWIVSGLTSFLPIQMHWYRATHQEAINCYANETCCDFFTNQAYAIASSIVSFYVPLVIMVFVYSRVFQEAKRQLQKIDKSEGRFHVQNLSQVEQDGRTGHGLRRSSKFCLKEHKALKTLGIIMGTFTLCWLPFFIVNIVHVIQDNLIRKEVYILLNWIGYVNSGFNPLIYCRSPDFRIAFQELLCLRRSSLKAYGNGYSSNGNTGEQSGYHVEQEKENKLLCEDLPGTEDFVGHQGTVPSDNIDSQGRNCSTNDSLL
Description: Displacement of [3H]DHA from human beta2 adrenoceptor by liquid scintillation counter

On to `Cc1c[nH]c2cccc(OCC(O)CN3CCN(C(c4ccccc4)c4ccccc4)CC3)c12` (centres undefined), for which affinity was put at a Ki of 0.311 nM. This counts as sub-nanomolar.
In turn, `CC(C)(C)NCC(O)COc1cccc2oc3ccccc3c12` (centres undefined) registered a Ki of 0.145 nM.
The result for `N#Cc1cc2c(OCC(O)CN3CCN(C(c4ccccc4)c4ccccc4)CC3)cccc2[nH]1` (centres undefined) reads 57.3 nM.
The result for `CC(C)(C)NCC(O)COc1cccc2[nH]cc(CC(N)=O)c12` (centres undefined) reads 23.5 nM.
